Results on one compound are retold here after US20240252594A1, “COMBINATION THERAPY FOR NEURODEGENERATIVE DISEASES” (ALETA NEUROSCIENCE, LLC, priority 2021, published 2024).

Test [1] deals with human dopaminergic neurons (iCell DopaNeurons). The test can be described thus: MPP+-induced neurotoxicity: neurite outgrowth (neurite length, branch points) on iCell DopaNeurons. Format: cell-based. The text has this: MPP+(1-methyl-4-phenylpyridinium) is a known neurotoxin which acts by interfering with oxidative phosphorylation in mitochondria by inhibiting complex I, a protein in the membrane of mitochondria in dopaminergic neurons in the substantia nigra.(94) The inhibition of mitochondrial function leads to the depletion of ATP and eventual cell death. MPP+ ultimately causes Parkinsonism in primates by killing certain dopamine-producing neurons in the substantia nigra.
iCell DOPA neurons are neural floor plate-derived midbrain dopaminergic neurons generated from human induced pluripotent stem cells (iPSCs). Dopaminergic neurons, specifically those located in the floor plate-derived midbrain are implicated in neurological disorders such as Parkinson's disease, MSA and DLBD among others. […] The iCellDopa neurons were supplied from FUJIFILM Cellular Dynamics.
(§1) Procedure. iCell DOPA neurons were thawed and cultured following the provider's instructions in Brainphys medium+provided supplements+1% N2 supplement (Stemcell Technologies)+penicillin/streptomycin+Laminin. They were plated at 20000 cells per well of a 384 well plate (pre-coated with poly-D-lysine and Laminin) in 70 μL of growth medium. Cells were incubated at 37° ° C./5% CO2 in a humidified cell culture incubator. Half of the culture medium was changed twice a week.
(§2) MPP+-induced neurotoxicity: 24 hours after neuronal plating, half of the medium was removed and the test compounds were applied with MPP+ treatment, both concentrated at 4×, were added to the wells. For each well, five aliquots were added, corresponding columns A-E in Table 3. In each row, either the compound indicated dissolved in its vehicle noted in Table 2 was added, or only a vehicle was added as indicated. Column E is an indicator of whether MPP+ was added. If not, only the medium was added.
(§3) For the evaluation of conditions 8, 10,12, 22, 24, Neurite outgrowth was followed for subsequent 48 hours using an Incucyte Zoom platform with one phase contrast image every 4 hours, using a 20× objective. After 48 hours, the medium containing test compounds and MPP+ was removed and replaced by fresh medium containing a fluorescent cytolysis marker (red fluorescence) and a live cell marker (green fluorescence). For the evaluation of conditions 10, 12, 24, 38, 40, 51-53, Neurite outgrowth was followed similarly for subsequent 72 hours after MPP+ was added.
Assay endpoints and data analysis. Phase contrast images were analyzed at each time point to determine the neurite length and number of branch points per mm^2. Kinetic data was plotted and kinetics were normalized by subtracting the value of the first data point (at time of treatment), allowing to measure changes in neurite outgrowth only from the onset of the treatment, starting at zero. Area Under Curve (AUC) of kinetic data was obtained and used for plotting compound's effects and perform statistical analyzes.

For test [2] the test system is unchanged. The test can be described thus: MPP+-induced neurotoxicity: cytolysis of iCell DopaNeurons. Type of test: cell-based. Conditions: Table 9.2, plate 2; with MPP+ 100 μM. The method, then:
Three different measurements were made in the experiments. Neurite length in mm was measured, which is a measure of increase in dendril length of neurons. […] Secondly, neurite branching was measured. […] Thirdly, cytolysis of the cells was measured. […] Experimental conditions were measured relative to the results of healthy cells in the studies.
as §1, §2, §3
Data was normalized to control conditions as there is basal cytolysis in the cell culture after thawing.

A further test relates to PD patients. The settings on record: at 6 months; cited from earlier work.
The next test relates to R6/2 HD mice. The settings on record: 10-day oral treatment, 9-week mice; cited from earlier work.

For the compound `Cc1c(O)c(=O)ccn1C` [DFP, Deferiprone], the “Protective effect on neurite length and branching (in words)” value in test [1] (MPP+ 100 μM) is “substantially inferior to condition 40”. In test [1] (Table 6.1, plate 2, with MPP+ 100 μM), the “Neurite length - Baseline-corrected AUC (0-72 h), Mean” value was 874.5 mm/mm^2. Moreover, the “Number of branch points per mm^2 - Baseline-corrected AUC (0-72 h), Mean” value in test [1] (Table 6.2, plate 2, with MPP+ 100 μM) was found to be 24282.5 per mm^2. Moreover, the “Neurite length, Mean ± S.D.” value in test [1] (Table 8.1, plate 2, with MPP+ 100 μM, 72 hours) is 1303.0 ± 378.7 mm/mm^2. For the same compound, in test [1] (Table 8.2, plate 2, with MPP+ 100 μM, 72 hours), the “Neurite Branching, Mean ± S.D.” value is reported as 51711.3 ± 15178.4 per mm^2. For the same compound, the “Cytolysis, Mean ± S.D.” value in test [2] is listed as 71.91 ± 1.28%. Further, the “UPDRS for motor skills, early start group” value in the test with PD patients was 21.6±8. In the test with R6/2 HD mice, the Motor endurance result was “improved motor endurance”.
